Laboratory results: ChEMBL document CHEMBL4020788, “Synthesis, SAR and molecular docking studies of benzo[d]thiazole-hydrazones as potential antibacterial and antifungal agents” (2017)
Active and inactive are the calls of the source. The calls are words filed in the database; no cut-off is given here.

Tests used:
Assay type in all cases: functional
Staphylococcus aureus [1] = test: Antibacterial activity against Staphylococcus aureus at 75 ug/ml after 24 hrs by agar well diffusion method; conditions: read-out: DIZ
Bacillus subtilis [2] = test: Antibacterial activity against Bacillus subtilis at 75 ug/ml after 24 hrs by agar well diffusion method; conditions: read-out: DIZ
Escherichia coli [3] = test: Antibacterial activity against Escherichia coli at 25 ug/ml after 24 hrs by agar well diffusion method; conditions: read-out: DIZ
Fusarium oxysporum [4] = test: Antifungal activity against Fusarium oxysporum at 100 ug/ml after 48 hrs by agar well diffusion method; conditions: read-out: DIZ
Fusarium verticillioides [5] = test: Antifungal activity against Fusarium moniliforme at 50 ug/ml after 48 hrs by agar well diffusion method; conditions: read-out: DIZ
Bacillus subtilis [6] = test: Antibacterial activity against Bacillus subtilis at 100 ug/ml after 24 hrs by agar well diffusion method; conditions: read-out: DIZ
Fusarium oxysporum [7] = test: Antifungal activity against Fusarium oxysporum at 75 ug/ml after 48 hrs by agar well diffusion method; conditions: read-out: DIZ
Klebsiella pneumoniae [8] = test: Antibacterial activity against Klebsiella pneumoniae at 50 ug/ml after 24 hrs by agar well diffusion method; conditions: read-out: DIZ
Fusarium oxysporum [9] = test: Antifungal activity against Fusarium oxysporum at 25 ug/ml after 48 hrs by agar well diffusion method; conditions: read-out: DIZ
Fusarium verticillioides [10] = test: Antifungal activity against Fusarium moniliforme at 25 ug/ml after 48 hrs by agar well diffusion method; conditions: read-out: DIZ
Escherichia coli [11] = test: Antibacterial activity against Escherichia coli at 100 ug/ml after 24 hrs by agar well diffusion method; conditions: read-out: DIZ
Bacillus subtilis [12] = test: Antibacterial activity against Bacillus subtilis at 50 ug/ml after 24 hrs by agar well diffusion method; conditions: read-out: DIZ
Klebsiella pneumoniae [13] = test: Antibacterial activity against Klebsiella pneumoniae at 100 ug/ml after 24 hrs by agar well diffusion method; conditions: read-out: DIZ
Escherichia coli [14] = test: Antibacterial activity against Escherichia coli at 50 ug/ml after 24 hrs by agar well diffusion method; conditions: read-out: DIZ
Bacillus subtilis [15] = test: Antibacterial activity against Bacillus subtilis at 25 ug/ml after 24 hrs by agar well diffusion method; conditions: read-out: DIZ
Klebsiella pneumoniae [16] = test: Antibacterial activity against Klebsiella pneumoniae at 25 ug/ml after 24 hrs by agar well diffusion method; conditions: read-out: DIZ
Staphylococcus aureus [17] = test: Antibacterial activity against Staphylococcus aureus at 100 ug/ml after 24 hrs by agar well diffusion method; conditions: read-out: DIZ
Staphylococcus aureus [18] = test: Antibacterial activity against methicillin resistant Staphylococcus aureus MRSA090 at 25 ug/ml after 24 hrs by agar well diffusion method; conditions: MRSA090, 24 h, read-out: DIZ
Staphylococcus aureus [19] = test: Antibacterial activity against methicillin resistant Staphylococcus aureus MRSA090 at 100 ug/ml after 24 hrs by agar well diffusion method; conditions: MRSA090, 24 h, read-out: DIZ
Fusarium verticillioides [20] = test: Antifungal activity against Fusarium moniliforme at 100 ug/ml after 48 hrs by agar well diffusion method; conditions: read-out: DIZ
Aspergillus niger [21] = test: Antifungal activity against Aspergillus niger at 50 ug/ml after 48 hrs by agar well diffusion method; conditions: read-out: DIZ
Escherichia coli [22] = test: Antibacterial activity against Escherichia coli at 75 ug/ml after 24 hrs by agar well diffusion method; conditions: read-out: DIZ
Staphylococcus aureus [23] = test: Antibacterial activity against methicillin resistant Staphylococcus aureus MRSA090 at 50 ug/ml after 24 hrs by agar well diffusion method; conditions: MRSA090, 24 h, read-out: DIZ
Staphylococcus aureus [24] = test: Antibacterial activity against Staphylococcus aureus at 50 ug/ml after 24 hrs by agar well diffusion method
Staphylococcus aureus [25] = test: Antibacterial activity against Staphylococcus aureus at 25 ug/ml after 24 hrs by agar well diffusion method
Staphylococcus aureus [26] = test: Antibacterial activity against methicillin resistant Staphylococcus aureus MRSA090 at 75 ug/ml after 24 hrs by agar well diffusion method; conditions: MRSA090, 24 h, read-out: DIZ
Aspergillus niger [27] = test: Antifungal activity against Aspergillus niger at 25 ug/ml after 48 hrs by agar well diffusion method; conditions: read-out: DIZ
Fusarium verticillioides [28] = test: Antifungal activity against Fusarium moniliforme at 75 ug/ml after 48 hrs by agar well diffusion method; conditions: read-out: DIZ
Fusarium oxysporum [29] = test: Antifungal activity against Fusarium oxysporum at 50 ug/ml after 48 hrs by agar well diffusion method; conditions: read-out: DIZ
Aspergillus niger [30] = test: Antifungal activity against Aspergillus niger at 100 ug/ml after 48 hrs by agar well diffusion method; conditions: read-out: DIZ
Aspergillus niger [31] = test: Antifungal activity against Aspergillus niger at 75 ug/ml after 48 hrs by agar well diffusion method; conditions: read-out: DIZ
Klebsiella pneumoniae [32] = test: Antibacterial activity against Klebsiella pneumoniae at 75 ug/ml after 24 hrs by agar well diffusion method; conditions: read-out: DIZ

Structure (SMILES)	zone of inhibition at 75 µg/mL (Staphylococcus aureus [1])	zone of inhibition at 75 µg/mL (Bacillus subtilis [2])	zone of inhibition at 25 µg/mL (Escherichia coli [3])	zone of inhibition at 100 µg/mL (Fusarium oxysporum [4])	zone of inhibition at 50 µg/mL (Fusarium verticillioides [5])	zone of inhibition at 100 µg/mL (Bacillus subtilis [6])	zone of inhibition at 75 µg/mL (Fusarium oxysporum [7])	zone of inhibition at 50 µg/mL (Klebsiella pneumoniae [8])	zone of inhibition at 25 µg/mL (Fusarium oxysporum [9])	zone of inhibition at 25 µg/mL (Fusarium verticillioides [10])	zone of inhibition at 100 µg/mL (Escherichia coli [11])	zone of inhibition at 50 µg/mL (Bacillus subtilis [12])	zone of inhibition at 100 µg/mL (Klebsiella pneumoniae [13])	zone of inhibition at 50 µg/mL (Escherichia coli [14])	zone of inhibition at 25 µg/mL (Bacillus subtilis [15])	zone of inhibition at 25 µg/mL (Klebsiella pneumoniae [16])	zone of inhibition at 100 µg/mL (Staphylococcus aureus [17])	zone of inhibition at 25 µg/mL (Staphylococcus aureus [18])	zone of inhibition at 100 µg/mL (Staphylococcus aureus [19])	zone of inhibition at 100 µg/mL (Fusarium verticillioides [20])	also measured
COc1cc(/C=N/Nc2nc3cccc(C)c3s2)cc(Br)c1O	13 mm	13 mm	11 mm	20 mm	13 mm	17 mm	17 mm	14 mm	8 mm	9 mm	21 mm	9 mm	21 mm	15 mm	5 mm	9 mm	16 mm	7 mm	20 mm	20 mm	zone of inhibition at 50 µg/mL (Aspergillus niger [21]): 11 mm; zone of inhibition at 75 µg/mL (Escherichia coli [22]): 19 mm; zone of inhibition at 50 µg/mL (Staphylococcus aureus [23]): 13 mm; zone of inhibition at 50 µg/mL (Staphylococcus aureus [24]; read-out: DIZ): 10 mm; zone of inhibition at 25 µg/mL (Staphylococcus aureus [25]; read-out: DIZ): 8 mm; zone of inhibition at 75 µg/mL (Staphylococcus aureus [26]): 19 mm; zone of inhibition at 25 µg/mL (Aspergillus niger [27]): 7 mm; zone of inhibition at 75 µg/mL (Fusarium verticillioides [28]): 17 mm; zone of inhibition at 50 µg/mL (Fusarium oxysporum [29]): 14 mm; zone of inhibition at 100 µg/mL (Aspergillus niger [30]): 18 mm; zone of inhibition at 75 µg/mL (Aspergillus niger [31]): 16 mm; zone of inhibition at 75 µg/mL (Klebsiella pneumoniae [32]): 17 mm
Cc1cccc2nc(N/N=C/c3ccc(Br)cc3)sc12	5 mm	11 mm	3 mm	29 mm	17 mm	13 mm	23 mm	11 mm	13 mm	12 mm	14 mm	7 mm	17 mm	7 mm	4 mm	6 mm	9 mm	9 mm	19 mm	28 mm	zone of inhibition at 50 µg/mL (Aspergillus niger [21]): 18 mm; zone of inhibition at 75 µg/mL (Escherichia coli [22]): 11 mm; zone of inhibition at 50 µg/mL (Staphylococcus aureus [23]): 11 mm; diameter of the inhibition zone (DIZ) (Staphylococcus aureus [24]): inactive; diameter of the inhibition zone (DIZ) (Staphylococcus aureus [25]): inactive; zone of inhibition at 75 µg/mL (Staphylococcus aureus [26]): 15 mm; zone of inhibition at 25 µg/mL (Aspergillus niger [27]): 14 mm; zone of inhibition at 75 µg/mL (Fusarium verticillioides [28]): 24 mm; zone of inhibition at 50 µg/mL (Fusarium oxysporum [29]): 18 mm; zone of inhibition at 100 µg/mL (Aspergillus niger [30]): 28 mm; zone of inhibition at 75 µg/mL (Aspergillus niger [31]): 23 mm; zone of inhibition at 75 µg/mL (Klebsiella pneumoniae [32]): 14 mm
